Results reported in patent US20110173718A1, “HERBICIDE TOLERANT PLANTS” (SYNGENTA CROP PROTECTION, INC., priority 2008, published 2011).

What was measured:
[1] = tested on: weeds; assay: Glasshouse weed control by HST/HPPD (mesotrione) mixtures, pre-emergence; assay type: in vivo; settings: 1 g/ha, N = 3
[2] = tested on: tobacco plants expressing Wheat HPPD; assay: Glasshouse spray test, wheat HPPD transgenic tobacco; assay type: in vivo; settings: Wheat HPPD T1
Excerpt: Transgenic lines of tobacco, soyabean and corn etc. can be engineered to express various heterologous HPPDs derived from, for example Avena (SEQ ID #26), Wheat (SEQ ID #27), Pseudomonas fluorescens (SEQ ID # 25) and Shewanella colwelliana (SEQ ID #28) as, for example, described in WO 02/46387.
Single copy events amongst the T1 plant lines are identified by their 3:1 segregation ratio (wrt kanamycin and or herbicide) and by quantitative RT-PCR. Seed from the thus selected T1 tobacco (var Samsun) lines are sown in 3 inch diameter pots containing 50% peat, 50% John Innes soil no 3. After growth to the 3 leaf stage, plants are sprayed, as described above, in order to test for herbicide tolerance relative to like-treated non-transgenic tobacco plants. […]
Exactly as described in example 5 of WO 02/46387 the wheat HPPD gene sequence (Embl DD064495) is cloned behind an Arabidopsis Rubisco small subunit (SSU) promoter and in front of a nos gene terminator to produce an SSU Wheat HPPD nos expression cassette' which is cloned into a binary vector and transformed into tobacco to produce a population of 30-50 transgenic events.

SMILES: CS(=O)(=O)c1ccc(C(=O)C2C(=O)CCCC2=O)c([N+](=O)[O-])c1 [Mesotrione, mesotrione, reference compound]
- % Damage at 14 DAA, mesotrione alone ([1]; ALOMY): 0%
- % Damage at 14 DAA, mesotrione alone ([1]; AMARE): 2%
- % Damage at 14 DAA, mesotrione alone ([1]; ECHCG): 0%
- % Damage at 14 DAA, mesotrione alone ([1]; IPOHE): 0%
- % Damage at 14 DAA, mesotrione alone ([1]; SETFA): 0%
- % Damage at 14 DAA, mesotrione alone ([1]; SOLNI): 17%
- % damage observed 16 DAT ([2]; 37 g/ha): 0%
- % damage observed 16 DAT ([2]; 111 g/ha): 2%
- % damage observed 16 DAT ([2]; 333 g/ha): 0%
- % damage observed 16 DAT ([2]; 1000 g/ha): 13%
